Measured values: PMC8362001 (Angewandte Chemie (International Ed. in English), 2021)

What was measured:
[1] = Hydrolysis of the P−N bond under acidic conditions; format: physicochemical; details: slightly acidic conditions (pH≤3)
[2] = target: eGFP (C70M S147C) (Aequorea victoria, UniProt P42212, C70M/F64L/H231L/S147C/S65T); assay: Second-order rate constant of the reaction with eGFP, intact protein MS; details: one equivalent of eGFP (C70M S147C), Tris buffer pH 8.3, 90 μM, room temperature, eGFP C70M as internal standard, triplicate

| SMILES | Hydrolytic stability of the P−N bond [1] | second‐order rate constant [2] |
| --- | --- | --- |
| C#CP(=O)(C#C)N(CC)CC [II] | rapid hydrolysis of the P−N bond |  |
| C#CCCOP(=O)(C#C)C#C [compound 2] |  | approximately 0.47 M^−1 s^−1 |
